Data reported in patent publication US20110160279A1, “METHODS FOR TREATMENT AND PREVENTION OF OTOTOXICITY BY siRNA” (BOARD OF TRUSTEES OF SOUTHERN ILLINOIS UNIVERSITY, priority 2007, published 2011).
“Also recorded” adds a separate entry of the source.

Assays:
TRPV1 [1] = format: cell-based, mouse
Description: (§1) Immortalized organ of Corti cells derived from the mouse, UB/OC-1 cells, were obtained from Dr. Matthew Holley (Institute of Molecular Physiology, Addison Building, Western Bank, Sheffield, UK) and cultured in RPMI 1640 supplemented with 10% Fetalclone II (Hyclone, Logan, Utah) serum and penicillin-streptomycin. Cultures were grown in a 33° C. incubator in 10% CO2.
To further study the role of ROS generated via cochlear NADPH oxidases in the induction of TRPV1 in the cochlea, in vitro experiments were performed using the organ of Corti transformed hair cell line, UB/OC1 (Rivolta et al., Proc. R. Sco. Lond., 265, 1595-1603, 1998). […] Immunolabeling was quantitated by fluorescence imaging using a confocal microscope. […] The immunofluorescence in these groups was reduced by 60 and 70%, respectively (FIG. 2B). […] The increases in expression of these genes were inhibited by DPI (10 μM), indicative of a role or NADPH oxidase activity in the induction of these subunits (FIG. 2G).

NOX3 mRNA [2] = assay: Real time RT-PCR of NOX3 mRNA in UB/OC-1 cells; format: cell-based, mouse
Description: as §1
(§2) RNA was isolated by adding 1 ml TR1 reagent to 100 mg of cochlear or cortical tissue or 0.5 ml TR1 reagent (Sigma, St. Louis, Mo.) per well of each six well plate, according to the manufacturer's instructions.
(§3) Real time reverse transcriptase polymerase chain reaction (RT-PCR): One microgram of total RNA was converted to cDNA using iScript cDNA Synthesis Kit (Bio-Rad, Hercules, Calif.), and qRTPCR was performed as described by (Mukherjea et al, 2006). Gene specific primer pairs were used for the various reactions and mRNA expression levels were normalized to the levels of GAPDH house keeping gene.
(§4) The rodent set of primers and siRNA were based on the homologous sequences in the rat and mouse cDNA sequences. The primers were purchased from Sigma Genosys (St. Louis, Mo.). Purified siRNA duplexes were purchased from Qiagen (Valencia, Calif.).

gp91 [3] = assay: Real time RT-PCR of gp91 mRNA in UB/OC-1 cells; format: cell-based, mouse
Description: as §1, §2, §3, §4

Rac1 [4] = assay: Real time RT-PCR of Rac1 mRNA in UB/OC-1 cells; format: cell-based, mouse
Description: as §1, §2, §3, §4

UB-OC1 cells [5] = assay: Cell viability and morphology of UB-OC1 cultures; format: cell-based, mouse
NADPH oxidase = conditions: 10 μM, cochlear extracts, Lucigenin probe
Description: In order to determine whether noise exposure increased the activity of NADPH oxidase in the chinchilla cochlea, a major source of reactive oxygen species (ROS), the activity of NADPH oxidase in cytosolic preparations from the cochlea was examined. The activity of NAD(P)H oxidase was determined using 50 μg protein from cochlear extracts incubated with 100 μM β-NAD(P)H in a total volume of 200 μl of Hank's HEPES buffer (pH 7.4). The assay was initiated by the addition of 50 μM N,N′-dimethyl-9,9′-biacridinium dinitrate (Lucigenin) (Sigma, St. Louis, Mo.) to the incubation mixture. Samples were counted immediately using a table top luminometer (Berthold Detection Systems FB Luminometer, Zylux Corp., Maryville, Tenn.) with sampling time every 6 sec. Samples were counted over a period of 5 min and the fluorescence recorded over 2 min of stable readings were averaged for that samples. Samples were run in duplicate and the NAD(P)H oxidase activity was normalized to the protein concentrations in each sample.

UB-OC1 cells [6] = assay: Apoptosis by TUNEL staining in UB-OC1 cells; format: cell-based, mouse; conditions: for apoptotic cells (TUNEL), of total cells: pretreated 30 min with TRPV1 inhibitor, then cisplatin 20 μM 24 h
Description: as §1
Frag-EL DNA fragmentation kit and H2DCFDA dye was purchased from (Calbiochem, San Diego, Calif.). TRPV1 antibody (Neuromics, Edina, Minn.) and secondary goat anti rabbit antibody was purchased from Santa Cruz Biotechnology (Santa Cruz, Calif.).
(§5) The increases in these proteins were attenuated by capsazepine (10 μM), implicating TRPV1 in this process.

p53 = p53 protein expression in UB/OC-1 cells; format: cell-based, mouse
Description: as §5

Bax = Bax protein expression in UB/OC-1 cells; format: cell-based, mouse
Description: as §5

UB/OC-1 = assay: Gentamicin-induced ROS generation by DCF2DA in UB/OC-1 cells; format: cell-based, mouse; conditions: capsazepine 10 μM or ruthenium red 20 μM for 15 min, then gentamicin (20 μM) 30 min
Description: FIG. 5 depicts that inhibition of TRPV1 reduces generation of reactive oxygen species (ROS) by aminoglycosides. UB/OC-1 cultures were pretreated with vehicle (control), capsazepine (10 μM) or ruthenium red (20 μM) for 15 min prior to the administration of vehicle (control) or gentamicin (20 μM) for 30 min and the generation of reactive oxygen species was determined by the fluorescence of 2′,7′-dichlorodihydrofluorescein diacetate (DCF2DA) using confocal microscopy.
In this study, the mouse organ of Corti cell line (UB/OC-1) was used to examine the properties of aminoglycoside-induced ROS generation. For these experiments, cells were grown on coverslips to 60-80% confluency, then pretreated with vehicle (control and gentamicin groups), capsazepine (10 μM) or ruthenium red (20 μM) for 15 min. This was followed by vehicle (control) or gentamicin for 30 min. Cells were then loaded with 2′,7′-dichlorodihydrofluorescein diacetate (DCF2DA) and imaged by confocal microscopy.

TRPV1 [7] = assay: TRPV1 immunoreactivity in rat cochlea sections; format: in vivo; conditions: 72 h following cisplatin 13 mg/kg i.p.; confocal microscopy
Description: Cochleae perfused with 4% paraformaldehyde were processed for decalcification and sectioning as described in (Dunaway et al., 2003). TRPV1-1 antibody was diluted 1:100 and samples were incubated for 1 h at 37° C. incubator. Secondary antibody used was goat anti-rabbit IgG conjugated to horse radish peroxidase (Santa Cruz Biotechnology, Inc, Santa Cruz, Calif.) which was diluted 1:200. ABC staining system (Santa Cruz Biotechnology), which included a diaminobenzadine as a peroxidase substrate, was used for visualization of protein expression. Slides were imaged using Scion Imaging system (Frederick, Md.).
Rats were tested for hearing loss 72 h later using auditory brainstem evoked responses (ABRs). […] Cochleas obtained from these animals were decalcified, sectioned and processed for TRPV1 immunoreactivity using a polyclonal antibody (as described in Puntambekar et al., 2005). Visualization by confocal microscopy indicated TRPV1 immunoreactivity in the organ of Corti, supporting cells and spiral ganglion cells. […] The increases were 18±1 and 15±3 at 48 h and 72 h, respectively (FIG. 1C).

TRPV1 mRNA [8] = assay: Real time RT-PCR of TRPV1 mRNA in rat cochlea; format: in vivo; conditions: rat cochlea
Description: (§6) Animal procedures and sample collection: Male Wistar rats were used for this study. Pre-ABR's were performed 2-3 days before round window application of siTRPV1 or PBS. […] The cochleas were dissected and used for the preparation of total RNA or total protein extracts, or perfused with 2.5% glutaraldehyde for morphological studies by Scanning Electron Microscopy (SEM's) or 4% paraformaldehyde for immunocytochemistry.
as §2, §3, §4

NOX3 mRNA [9] = assay: Real time RT-PCR of NOX3 mRNA in rat cochlea; format: in vivo; conditions: cisplatin, 72 hrs
Description: as §6, §2, §3, §4

Rac1 [10] = assay: Real time RT-PCR of Rac1 transcript in rat cochlea; format: in vivo; conditions: cisplatin (data not shown)
Description: as §2, §3
(§7) The rodent set of primers and siRNA were based on the homologous sequences in the rat and mouse cDNA sequences. The primers were purchased from Sigma Genosys (St. Louis, Mo.). Purified siRNA duplexes were purchased from Qiagen (Valencia, Calif.). Primers were as follows: Rodent NOX3 (sense): 5′-[…]-3′ (SEQ ID NO: 9) (antisense): 5′-[…]-3′ (SEQ ID NO: 10), Rodent-GAPDH (sense): 5′-[…]-3′ (SEQ ID NO: 11) (antisense): 5′-[…]-3′ (SEQ ID NO: 12), Rodent TRPV1 (sense): 5′-[…]-3′ (SEQ ID NO: 13), (antisense): 5-[…]-3′ (SEQ ID NO: 14), Rodent Rac-1 (sense): 5′-[…]-3′ (SEQ ID NO: 15), (antisense): 5′-[…]-3′ (SEQ ID NO: 16), Rodent gp-91 (sense) 5′-[…]-3′ (SEQ ID NO: 17), (antisense): 5′-[…]-3′ (SEQ ID NO: 18), and Rat p22 (sense): 5′-[…]-3′ (SEQ ID NO: 19), (antisense) 5′-[…]-3′ (SEQ ID NO: 20) […]

gp91 [11] = assay: Real time RT-PCR of gp91 transcript in rat cochlea; format: in vivo; conditions: cisplatin (data not shown)
Description: as §2, §3, §7

p22 = assay: Real time RT-PCR of p22 transcript in rat cochlea; format: in vivo; conditions: cisplatin (data not shown)
Description: as §2, §3, §7

TRPV1 protein [12] = assay: Western blot of TRPV1 protein in whole cochlear lysates; format: in vivo, rat; conditions: 72 h following cisplatin
From the text: Cochleae were homogenized in ice-cold TRIS 50:10:100. The whole tissue lysate was then used for Western blotting. After transfer to nitrocellulose membrane TRPV1 protein was visualized by chemiluminesence detection (ECL, Amersham, Piscataway, N.J.).

TRPV1 protein [13] = assay: Western blot of TRPV1 protein in UB-OC1 cells; format: cell-based, mouse; conditions: cisplatin 2.5 μM
TRPV1 mRNA [14] = assay: Real time RT-PCR of TRPV1 mRNA in UB/OC-1 cells; format: cell-based, mouse; conditions: cisplatin 2.5 μM, 24 h
Description: as §1, §2, §3, §4

UB-OC1 cells [15] = assay: Cisplatin-induced ROS generation by DCF2DA fluorescence in UB-OC1 cells; format: cell-based, mouse; conditions: cisplatin 2.5 μM, 30 minute
UB/OC-1 cells = assay: Intracellular Ca2+ with Fura4-AM in UB/OC-1 cells; format: cell-based, mouse; conditions: cisplatin
Description: as §5

outer hair cells = assay: Outer hair cell loss by scanning electron microscopy; format: in vivo, rat; conditions: cisplatin 16 mg/kg i.p., vehicle-pretreated cochlea, 3 days, N=3
Description: Immediately after completion of follow-up ABRs, deeply sedated rats were euthanized, their cochleae harvested and processed as described in (Kamimura et al, 1999). Sputter coated cochleae were then viewed and photographed with a Hitachi S-500 scanning electron microscope (Hitachi Ltd., Tokyo, Japan).
Hair cell counts were performed using a modified version of the method used by (Korver et al. 2002). Two representative areas of the basal turn and hook portion were photographed. In each area, inner or outer hair cells were counted in an area that was 10 pillar cell heads in length.
The results were shown, as the average survival percentage rates compared to the control group. Statistical analysis was performed using Student's t-test.
Five rats were administered either vehicle or TRPV1 siRNA (3 μl) by round window application. The rats served as their own controls since one cochlea was treated with vehicle and the other with siRNA.

[16] = pretreatment (capsazepine 10 μM; BAPTA-AM 30 min) before cisplatin

## c1ccc2c(c1)[I+]c1ccccc1-2 [DPI, diphenyleneiodonium]
TRPV1 [1]; pretreatment with 100 μM AEBSF or 10 μM DPI before cisplatin 2.5 μM
  reduction of TRPV1 immunofluorescence: 70%
NOX3 mRNA [2]; DPI 10 μM
  effect on cisplatin-induced increase in NOX3 expression: inhibited
gp91 [3]; DPI 10 μM
  effect on cisplatin-induced increase in gp91 expression: inhibited
Rac1 [4]; DPI 10 μM
  effect on cisplatin-induced increase in Rac1 expression: inhibited
UB-OC1 cells [5]
  effect on cell viability over a 24 h period: did not significantly affect cell viability
NADPH oxidase
  effect on NADPH oxidase activity: blockade of enzyme activity

## Oc1cc2c(cc1O)CN(C(=S)NCCc1ccc(Cl)cc1)CCC2 [capsazepine]
UB-OC1 cells [6]
  effect on cell apoptosis compared to vehicle-treated control: Neither capsazepine nor ruthenium red alone had any significant effect
  apoptotic cells (TUNEL), of total cells: ~7%
p53; [16]
  effect on cisplatin-induced increase in p53: attenuated
Bax; [16]
  effect on cisplatin-induced increase in Bax: attenuated
UB/OC-1
  effect on ROS generation of the gentamicin group: suppressed

## N.N.[Cl][Pt][Cl] [cisplatin]
TRPV1 [7]
  elevation of TRPV1 immunoreactivity in hair cells and spiral ganglion cells: 2-3 fold
TRPV1 mRNA [8]; 24 h following cisplatin
  increase in TRPV1 transcripts: 15±1 fold
TRPV1 mRNA [8]; 48 h following cisplatin
  increase in TRPV1 transcripts: 18±1
TRPV1 mRNA [8]; 72 h following cisplatin
  increase in TRPV1 transcripts: 15±3
TRPV1 mRNA [8]; lipoic acid experiment (FIG. 1D), 72 hrs
  level of induction of TRPV1 by cisplatin: 5.5±1.5 fold
NOX3 mRNA [9]
  change in NOX3 transcript in the cochlea: small but statistically significant increase
Rac1 [10]
  increase in Rac1 expression: 478±85 fold
gp91 [11]
  increase in gp91 expression: 1000±102 fold
p22
  increase in p22 expression: 8±1 fold
TRPV1 protein [12]
  TRPV1 protein (~95 kDa band) in whole cochlear lysates: increased TRPV1 protein
TRPV1 [1]; cisplatin 2.5 μM, 24 h
  induction in TRPV1 immunoreactivity over control vehicle treated cells: 71±29%
TRPV1 protein [13]
  increase in TRPV1 protein by Western blotting: 90%±10%
TRPV1 mRNA [14]
  change in TRPV1 mRNA: significant increase; also recorded: Three fold increase
UB-OC1 cells [15]
  ROS generation by DCF2DA fluorescence: robust increase
NOX3 mRNA [2]; cisplatin 2.5 μM
  increase in NOX3 mRNA: 2.7 fold
gp91 [3]; cisplatin 2.5 μM
  increase in gp91 mRNA: 2.8 fold
Rac1 [4]; cisplatin 2.5 μM
  increase in Rac1 mRNA: 2.1 fold
UB-OC1 cells [6]; cisplatin 20 μM, 24 h
  apoptotic cells (TUNEL): ~80%
p53; cisplatin, 24 hr
  p53 protein: increases
Bax; cisplatin, 24 hr
  Bax protein: increases
UB/OC-1 cells
  intracellular Ca2+: increased intracellular Ca2+
Outer hair cells
  percentage of outer hair cell loss, base: 42±9 percentage
  percentage of outer hair cell loss, hook: 72±14 percentage
  percentage of outer hair cell loss, middle turn: 22±2.7 percentage

## N.N.N.N.N.N.N.N.N.N.N.N.N.N.[Cl-].[Cl-].[Cl-].[Cl-].[Cl-].[Cl-].[O-2].[O-2].[Ru+3].[Ru+3].[Ru+4] [ruthenium red]
UB-OC1 cells [6]
  effect on cell apoptosis compared to vehicle-treated control: Neither capsazepine nor ruthenium red alone had any significant effect
  apoptotic cells (TUNEL), of total cells: ~7%
UB/OC-1
  effect on ROS generation of the gentamicin group: suppressed
